What all share (assay type): biochemical
One assay deals with HDAC1 (Homo sapiens (Human), UniProt Q13547). The experiment in a line: HDAC enzyme assay, HDAC1. The procedure: (§1) Compounds for testing were diluted in DMSO to 50 fold the final concentration and a ten point three fold dilution series was made. The compounds were diluted in assay buffer (50 mM HEPES, pH 7.4, 100 mM KCl, 0.001% Tween-20, 0.05% BSA, 20 μM TCEP) to 6 fold their final concentration. The HDAC enzymes (purchased from BPS Biosciences) were diluted to 1.5 fold their final concentration in assay buffer. The tripeptide substrate and trypsin at 0.05 μM final concentration were diluted in assay buffer at 6 fold their final concentration. The final enzyme concentrations used in these assays were 3.3 ng/ml (HDAC1), 0.2 ng/ml (HDAC2), 0.08 ng/ml (HDAC3) and 2 ng/ml (HDAC6). The final substrate concentrations used were 16 μM (HDAC1), 10 μM (HDAC2), 17 μM (HDAC3) and 14 μM (HDAC6).
(§2) Five μl of compounds and 20 μl of enzyme were added to wells of a black, opaque 384 well plate in duplicate. Enzyme and compound were incubated together at room temperature for 10 minutes. Five μ1 of substrate was added to each well, the plate was shaken for 60 seconds and placed into a Victor 2 microtiter plate reader. The development of fluorescence was monitored for 60 min and the linear rate of the reaction was calculated. The IC50 was determined using Graph Pad Prism by a four parameter curve fit.

Another assay addresses HDAC6 (Homo sapiens (Human), UniProt Q9UBN7). The experiment in a line: HDAC enzyme assay, HDAC6. The method, then: as §1
as §2, with “fit. The IC50 values obtained for several of the compounds of this invention are found in Table 1.” for “fit.”

In another assay the target is HDAC2 (Homo sapiens (Human), UniProt Q92769). Briefly: HDAC enzyme assay, HDAC2. The procedure: as §1, §2
A further assay concerns the target HDAC3 (Homo sapiens (Human), UniProt O15379). Briefly: HDAC enzyme assay, HDAC3. The procedure:
Compounds for testing were diluted in DMSO to 50 fold the final concentration and a ten point three fold dilution series was made. The compounds were diluted in assay buffer (50 mM HEPES, pH 7.4, 100 mM KCl, 0.001% Tween-20, 0.05% BSA, 20 μM TCEP) to 6 fold their final concentration. […] The tripeptide substrate and trypsin at 0.05 μM final concentration were diluted in assay buffer at 6 fold their final concentration. The final enzyme concentrations used in these assays were 3.3 ng/ml (HDAC1), 0.2 ng/ml (HDAC2), 0.08 ng/ml (HDAC3) and 2 ng/ml (HDAC6).
as §2

Ten molecules from patent US9278963B2, “Pyrimidine hydroxy amide compounds as histone deacetylase inhibitors” (Acetylon Pharmaceuticals, Inc., priority 2013, dated 2016) can be followed below.

Each structure is given as a SMILES string.

One may read the IC50 as the concentration that gives 50% inhibition. A low value points to inhibition by little substance.

HDAC2, sequence (Q92769 whole entry): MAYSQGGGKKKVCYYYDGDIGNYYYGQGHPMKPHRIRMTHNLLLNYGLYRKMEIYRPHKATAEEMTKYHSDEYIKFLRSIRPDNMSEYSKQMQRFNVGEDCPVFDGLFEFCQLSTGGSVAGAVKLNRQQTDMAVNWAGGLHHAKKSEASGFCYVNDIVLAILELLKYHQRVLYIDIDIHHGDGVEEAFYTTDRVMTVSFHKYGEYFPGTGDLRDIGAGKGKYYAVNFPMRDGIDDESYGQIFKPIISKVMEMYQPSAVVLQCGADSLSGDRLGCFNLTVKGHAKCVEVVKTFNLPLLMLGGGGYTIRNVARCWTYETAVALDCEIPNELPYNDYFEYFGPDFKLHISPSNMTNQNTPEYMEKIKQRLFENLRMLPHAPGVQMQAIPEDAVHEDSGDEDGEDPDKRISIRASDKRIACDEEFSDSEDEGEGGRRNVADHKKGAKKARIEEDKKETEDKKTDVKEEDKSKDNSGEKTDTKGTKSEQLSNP
HDAC6, sequence (Q9UBN7 whole entry): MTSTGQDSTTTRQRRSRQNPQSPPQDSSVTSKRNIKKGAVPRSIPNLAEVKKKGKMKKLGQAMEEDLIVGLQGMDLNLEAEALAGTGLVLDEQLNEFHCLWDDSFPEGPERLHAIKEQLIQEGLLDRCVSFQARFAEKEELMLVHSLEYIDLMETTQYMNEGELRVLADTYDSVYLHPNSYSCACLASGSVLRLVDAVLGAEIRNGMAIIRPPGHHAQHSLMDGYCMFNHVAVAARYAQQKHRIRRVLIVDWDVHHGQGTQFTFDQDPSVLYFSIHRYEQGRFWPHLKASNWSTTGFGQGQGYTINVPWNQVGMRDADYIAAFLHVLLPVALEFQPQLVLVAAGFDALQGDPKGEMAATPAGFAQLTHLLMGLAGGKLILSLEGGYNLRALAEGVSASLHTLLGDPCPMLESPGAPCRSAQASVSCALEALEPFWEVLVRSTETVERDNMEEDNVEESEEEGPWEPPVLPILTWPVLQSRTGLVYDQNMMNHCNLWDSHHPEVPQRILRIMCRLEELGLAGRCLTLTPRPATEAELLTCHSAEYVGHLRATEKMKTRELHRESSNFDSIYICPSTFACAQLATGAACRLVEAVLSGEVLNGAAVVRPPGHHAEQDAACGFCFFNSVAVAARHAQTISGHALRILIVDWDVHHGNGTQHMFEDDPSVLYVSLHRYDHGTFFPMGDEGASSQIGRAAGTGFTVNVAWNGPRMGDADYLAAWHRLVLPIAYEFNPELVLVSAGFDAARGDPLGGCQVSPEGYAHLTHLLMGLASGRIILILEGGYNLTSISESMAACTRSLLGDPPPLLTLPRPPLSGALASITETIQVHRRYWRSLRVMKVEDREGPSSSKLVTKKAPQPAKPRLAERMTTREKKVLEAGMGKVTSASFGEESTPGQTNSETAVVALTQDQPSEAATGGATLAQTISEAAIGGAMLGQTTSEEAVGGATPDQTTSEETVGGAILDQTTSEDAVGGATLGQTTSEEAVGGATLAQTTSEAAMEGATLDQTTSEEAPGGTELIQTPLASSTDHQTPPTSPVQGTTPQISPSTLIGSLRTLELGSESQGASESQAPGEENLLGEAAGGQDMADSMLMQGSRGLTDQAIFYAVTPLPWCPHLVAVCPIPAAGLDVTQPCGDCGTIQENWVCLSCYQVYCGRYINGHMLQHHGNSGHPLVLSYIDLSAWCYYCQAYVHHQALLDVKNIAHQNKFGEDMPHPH
HDAC3, sequence (O15379 whole entry): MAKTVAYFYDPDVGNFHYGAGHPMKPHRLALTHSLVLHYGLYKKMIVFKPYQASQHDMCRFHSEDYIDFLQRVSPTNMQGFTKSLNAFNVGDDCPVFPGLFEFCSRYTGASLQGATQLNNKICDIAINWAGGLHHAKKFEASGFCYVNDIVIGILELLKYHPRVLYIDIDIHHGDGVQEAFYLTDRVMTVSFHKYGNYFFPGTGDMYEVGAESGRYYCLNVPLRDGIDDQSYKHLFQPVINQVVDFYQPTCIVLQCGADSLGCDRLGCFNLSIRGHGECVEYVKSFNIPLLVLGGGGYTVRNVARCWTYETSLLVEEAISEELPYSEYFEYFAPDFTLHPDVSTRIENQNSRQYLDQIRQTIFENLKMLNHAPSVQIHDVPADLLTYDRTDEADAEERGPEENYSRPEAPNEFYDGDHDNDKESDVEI
HDAC3, sequence (Q9Y618 395-489 partner): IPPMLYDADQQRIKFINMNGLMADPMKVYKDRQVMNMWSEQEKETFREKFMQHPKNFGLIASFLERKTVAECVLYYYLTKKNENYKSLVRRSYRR
HDAC1, sequence (Q13547 whole entry): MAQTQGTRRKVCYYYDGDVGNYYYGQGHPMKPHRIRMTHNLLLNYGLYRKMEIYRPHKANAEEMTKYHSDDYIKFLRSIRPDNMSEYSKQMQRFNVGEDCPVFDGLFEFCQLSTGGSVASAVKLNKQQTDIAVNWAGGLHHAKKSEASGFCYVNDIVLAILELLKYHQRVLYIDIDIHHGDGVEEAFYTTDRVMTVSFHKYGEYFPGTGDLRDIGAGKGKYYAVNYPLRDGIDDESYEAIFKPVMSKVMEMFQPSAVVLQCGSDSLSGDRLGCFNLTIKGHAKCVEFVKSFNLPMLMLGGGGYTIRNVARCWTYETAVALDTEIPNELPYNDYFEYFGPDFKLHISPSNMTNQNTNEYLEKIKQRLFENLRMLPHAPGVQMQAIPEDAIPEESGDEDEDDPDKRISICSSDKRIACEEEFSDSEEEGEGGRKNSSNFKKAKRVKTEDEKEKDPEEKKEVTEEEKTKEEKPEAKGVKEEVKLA

For the molecule `O=C(NO)c1cnc(NC2(c3ccccc3)CCN(S(=O)(=O)c3ccccc3)CC2)nc1` [Compound 023, N-hydroxy-2-((4-phenyl-1-(phenylsulfonyl)piperidin-4-yl)amino)pyrimidine-5-carboxamide], the IC50 stood at 844 nM at HDAC1, 4.6 nM against HDAC6, 829 nM against HDAC2 and 3540 nM at HDAC3.
On the same counts, the results for `O=C(NO)c1cnc(NC2(c3ccccc3)CCN(c3ccccc3)CC2)nc1` [Compound 009, 2-((1,4-diphenylpiperidin-4-yl)amino)-N-hydroxypyrimidine-5-carboxamide] are 356 nM, 2.1 nM, 380 nM and 1780 nM.
On the same counts, the results for `CC(C)[C@H](C(=O)N1CCC(Nc2ncc(C(=O)NO)cn2)(c2ccccc2)CC1)c1ccccc1` (stereo in doubt) [Compound 026, N-hydroxy-2-((1-(3-methyl-2-phenylbutanoyl)-4-phenylpiperidin-4-yl)amino)pyrimidine-5-carboxamide] are 206 nM, 5 nM, 173 nM and 1100 nM.
Turning to `O=C(NO)c1cnc(NC2(c3ccccc3)CCN(C(=O)Nc3c(F)cccc3F)CC2)nc1` [Compound 024, 2-((1-((2,6-difluorophenyl)carbamoyl)-4-phenylpiperidin-4-yl)amino)-N-hydroxypyrimidine-5-carboxamide], the IC50 at HDAC1 is 22 nM; at HDAC6, 3.7 nM; against HDAC2 it was 22 nM; at HDAC3 it was 761 nM.
With `O=C(NO)c1cnc(NC2(c3ccccc3)CCN(C(=S)Nc3ccccc3)CC2)nc1` [Compound 017, N-hydroxy-2-((4-phenyl-1-(phenylcarbamothioyl)piperidin-4-yl)amino)pyrimidine-5-carboxamide], the half-maximal inhibitory concentration (IC50) against HDAC1 came to 5.9 nM; at HDAC6 it was 2.4 nM; on HDAC2 it was 5.2 nM; against HDAC3, 111 nM.
On the same counts, the results for `CC(=O)N1CCC(Nc2ncc(C(=O)NO)cn2)(c2ccccc2)CC1` [Compound 003, 2-((1-acetyl-4-phenylpiperidin-4-yl)amino)-N-hydroxypyrimidine-5-carboxamide] are 346 nM, 1.6 nM, 254 nM and 840 nM.
On the same counts, the results for `C[C@@H](C(=O)N1CCC(C)(Nc2ncc(C(=O)NO)cn2)CC1)c1ccccc1` [Compound 027, (R)—N-hydroxy-2-((4-methyl-1-(2-phenylpropanoyl)piperidin-4-yl)amino)pyrimidine-5-carboxamide] are 130 nM, 12 nM, 103 nM and 422 nM.
On the same counts, the results for `O=C(NO)c1cnc(NC2(c3ccccc3)CCN(S(=O)(=O)c3ccc(C(F)(F)F)cc3)CC2)nc1` [Compound 022, N-hydroxy-2-((4-phenyl-1-((4-(trifluoromethyl)phenyl)sulfonyl)piperidin-4-yl)amino)pyrimidine-5-carboxamide] are 704 nM, 7.3 nM, 782 nM and 2700 nM.
For the molecule `COc1ccc(NC(=O)N2CCC(Nc3ncc(C(=O)NO)cn3)(c3ccccc3)CC2)cc1` [Compound 008, N-hydroxy-2-((1-((4-methoxyphenyl)carbamoyl)-4-phenylpiperidin-4-yl)amino)pyrimidine-5-carboxamide], the half-inhibitory concentration (IC50) against HDAC1 turned out to be 21 nM; against HDAC6 it was 1.5 nM; against HDAC2 it was 24 nM; against HDAC3 it was 546 nM.
On the same counts, the results for `Cc1ccc(S(=O)(=O)N2CCC(Nc3ncc(C(=O)NO)cn3)(c3ccccc3)CC2)cc1` [Compound 021, N-hydroxy-2-((4-phenyl-1-tosylpiperidin-4-yl)amino)pyrimidine-5-carboxamide] are 570 nM, 4.5 nM, 642 nM and 2510 nM.
